Measured values reported in ChEMBL document CHEMBL1122998, “New antihistaminic theophylline or theobromine derivatives” (1985).

What was measured:
[1] = test system: Cavia porcellus; test: Percent decrease in bronchodilator activity against acetylcholine-induced bronchospasm reaction in guinea pig by intraveneous administration at dose 250 ug/kg; type: functional
[2] = test system: Rattus norvegicus; test: Percentage decrease in antiallergic activity against cutaneous reaction to histamine in rat, by oral administration at a dose of 10 mg/kg; type: functional
[3] = test system: Rattus norvegicus; test: Percent protection against Passive Cutaneous Anaphylaxis in rat after 3.0 hh at dose 100 mg/kg by peroral administration through exogenous histamine reaction; type: functional; details: route oral
[4] = test system: Rattus norvegicus; test: Percent protection against Passive Cutaneous Anaphylaxis in rat after 3.0 hh at dose 100 mg/kg by peroral administration through antigen or antibody reaction; type: functional; details: route oral
[5] = test system: Rattus norvegicus; test: Percent protection against Passive Cutaneous Anaphylaxis in rat after 1.0 hr at dose 100 mg/kg by peroral administration through exogenous histamine reaction; type: functional; details: route oral
[6] = test system: Rattus norvegicus; test: Percent decrease in antiallergic activity by antigen/antibody reaction assay in rat by oral administration at a dose of 10 mg/kg; type: functional
[7] = test system: Cavia porcellus; test: Percentage decrease in bronchodilator activity against serotonin-induced bronchospasm reaction in guinea pig by intraveneous administration at dose 250 ug/kg; type: functional
[8] = test system: Rattus norvegicus; test: Percent protection against Passive Cutaneous Anaphylaxis in rat after 2.0 hr at dose 100 mg/kg by peroral administration through exogenous histamine reaction; type: functional; details: route oral
[9] = test system: Rattus norvegicus; test: Percent protection against Passive Cutaneous Anaphylaxis in rat after 4.0h at dose 100 mg/kg by peroral administration through antigen or antibody reaction; type: functional; details: route oral
[10] = test system: Rattus norvegicus; test: Percent protection against Passive Cutaneous Anaphylaxis in rat after 4.0h at dose 100 mg/kg by peroral administration through exogenous histamine reaction; type: functional; details: route oral
[11] = test system: Rattus norvegicus; test: Percent protection against Passive Cutaneous Anaphylaxis in rat after 1.0 hr at dose 100 mg/kg by peroral administration through antigen or antibody reaction; type: functional; details: route oral
[12] = test system: Rattus norvegicus; test: Percent protection against Passive Cutaneous Anaphylaxis in rat after 2.0 hr at dose 100 mg/kg by peroral administration through antigen or antibody reaction; type: functional; details: route oral
[13] = test system: Rattus norvegicus; test: Percent protection against Passive Cutaneous Anaphylaxis in rat after 0.25 hr at dose 100 mg/kg by peroral administration through antigen or antibody reaction; type: functional; details: route oral
[14] = test system: Rattus norvegicus; test: Percent protection against Passive Cutaneous Anaphylaxis in rat after 0.25 hr at dose 100 mg/kg by peroral administration through exogenous histamine reaction; type: functional; details: route oral
[15] = test system: Cavia porcellus; test: Percent decrease in bronchodilator activity against histamine-induced bronchospasm reaction in guinea pig by intraveneous administration at dose 10.5 ug/kg
[16] = test system: Cavia porcellus; test: Percent decrease in bronchodilator activity against histamine-induced bronchospasm reaction in guinea pig by intraveneous administration at dose 250 ug/kg; type: functional
[17] = test system: Cavia porcellus; test: Percent decrease in bronchodilator activity against histamine-induced bronchospasm reaction in guinea pig by intraveneous administration at dose 4 mg/kg

| Structure (SMILES) | Decrease [1] [%] | Decrease [2] [%] | Protection [3] [%] | Protection [4] [%] | Protection [5] [%] | Decrease [6] [%] | Decrease [7] [%] | Protection [8] [%] | Protection [9] [%] | Protection [10] [%] | Protection [11] [%] | Protection [12] [%] | Protection [13] [%] | Protection [14] [%] | Decrease [15] [%] | Decrease [16] [%] | Decrease [17] [%] |
| --- | --- | --- | --- | --- | --- | --- | --- | --- | --- | --- | --- | --- | --- | --- | --- | --- | --- |
| Cn1c(=O)c2c(ncn2CCCN2CCN(CCCSc3ccccc3)CC2)n(C)c1=O | 23 | 62 | 0 | 0 | 23 | 60 | 69 | 28 | 0 | 0 | 45 | 45 | 98 | 46 | 95 | – | – |
| CC(=O)OC(CN1CCN(CCCSc2ccccc2)CC1)Cn1cnc2c1c(=O)n(C)c(=O)n2C (stereo not given) | 17 | 62 | – | – | – | 54 | 29 | – | – | – | – | – | – | – | – | 50 | – |
| Cn1c(=O)c2c(ncn2CN2CCN(CCCSc3ccccc3)CC2)n(C)c1=O | 0 | 0 | – | – | – | 0 | 0 | – | – | – | – | – | – | – | 9 | – | – |
| Cn1cnc2c1c(=O)n(CCCN1CCN(CCCOc3ccccc3)CC1)c(=O)n2C | 30 | 0 | – | – | – | 23 | 47 | – | – | – | – | – | – | – | 28 | – | – |
| CC(CN1c2ccccc2Sc2ccccc21)N(C)C (stereo not given) [PROMETHAZINE] | 0 | 58 | – | – | – | 30 | 0 | – | – | – | – | – | – | – | 40 | – | – |
| Cn1c(=O)c2c(ncn2CC(O)CN2CCN(CCCSc3ccccc3)CC2)n(C)c1=O (stereo not given) [TAZIFYLLINE] | 23 | 65 | 52 | 74 | 49 | 54 | 26 | 33 | 44 | 39 | 98 | 82 | 100 | 52 | 76 | – | – |
| Cn1c(=O)c2nc[nH]c2n(C)c1=O.O [THEOPHYLLINE] | 72 | 15 | – | – | – | 45 | 59 | – | – | – | – | – | – | – | – | – | 56 |
